{
  "source": "patent US8318799B2",
  "about": "“Therapeutic agent for substance dependence” (National University Corporation Kyushu University, priority 2004, dated 2012)",
  "key": {"male Wister/ST rats [1]": {"test_system": "male Wister/ST rats", "experiment": "influence on occurrence of substance-seeking behavior by the compound itself", "assay_type": "in vivo, rat", "conditions": "high dose 10 mg/kg i.p.; FIG. 6"}, "male Wister/ST rats [2]": {"test_system": "male Wister/ST rats", "experiment": "methamphetamine-seeking behavior induced by forced administration of a low dose of methamphetamine (drug self-administration procedure, after extinction)", "assay_type": "in vivo, rat", "text": "(§1) First, an experimental animal is allowed to learn the drug self-administration behavior of pressing a lever to attain a substance. The animal is given a substance-containing solution simultaneously with a light-tone stimulus. After the animal is allowed to learn the substance self-administration behavior, the substance-containing solution is replaced by physiological saline. The behavior of eagerly pressing the lever for acquiring the substance comes to be observed in the experimental animal having learned the substance self-administration behavior. This behavior is regarded as substance-seeking behavior. […] However, the substance-seeking behavior will recur by the same light-tone stimulus (drug-associated stimuli) used during the self-administration training to the experimental animal or by administrating a substance inducing the central stimulant effect. This experimental system was used to examine the effect of various compounds.\n(§2) Using methamphetamine as an addictive substance, the following experiments were carried out according to a method described in Neuropsychopharmacology, 29, 1470-1478 (2004).\n(§3) A catheter for self-administration of methamphetamine (inner diameter of 0.5 mm, outer diameter of 1.0 mm) was inserted into the right jugular vein of male Wister/ST rats (250 to 350 g), and the end of the catheter was anchored to just outside the right atrium. An operant box used in the experiment was equipped with 2 levers. One is an active lever by which when pressed once (fixed-ratio 1 (FR1)), infusions of a very low dose of methamphetamine (0.02 mg per injection) was paired with onset of a 6-sec tone (70 dB/7 kHz) and light (300 lux) compound stimulus.\nAfter the animal was allowed to get methamphetamine self-administration behavior (methamphetamine-taking behavior) by the self-administration experiment for 10 days (2 hours per session), physiological saline was substituted for methamphetamine, to carry out an extinction process for 5 days (1 hour per session without drug-associated cue). […]"}, "male Wister/ST rats [3]": {"test_system": "male Wister/ST rats", "experiment": "influence on methamphetamine-taking behavior (methamphetamine self-administration)", "assay_type": "in vivo, rat", "conditions": "1.0 mg/kg intraperitoneally; FIG. 5", "text": "FIG. 5 is a graph showing the influence of the compound of the present invention on methamphetamine self-administration.\nas §3\n(§4) After the animal was allowed to get methamphetamine self-administration behavior (methamphetamine-taking behavior) by the self-administration experiment for 10 days (2 hours per session), physiological saline was substituted for methamphetamine, to carry out an extinction process for 5 days (1 hour per session without drug-associated cue).\nFor examining the influence of the compound of the present invention on methamphetamine-taking behavior, 1.0 mg/kg of the compound of the present invention was administered intraperitoneally."}, "male Wister/ST rats [4]": {"test_system": "male Wister/ST rats", "experiment": "methamphetamine-seeking behavior induced by drug-associated cue (drug self-administration procedure, after extinction)", "assay_type": "in vivo, rat", "conditions": "for antagonism in cue-induced methamphetamine-seeking behavior on coadministration with the compound of the present invention: 30 minutes before cue, FIG. 7", "text": "as §1, §2, §3, §4\nOn day 6 of the extinction process, substance-seeking behavior (“craving”) was induced by drug-associated cue (tone and light) or by administering a low dose of methamphetamine (1.0 mg/kg, intraperitoneal (i.p.) administration).\nThirty minutes before this stimulation with the drug-associated cue or by the administration of a low dose of methamphetamine, […] administration of the compound of the present invention (0.32, 1.0 mg/kg, i.p.) was carried out, and a change in the methamphetamine-seeking behavior induced by drug-associated cue or by forced administration of methamphetamine was observed. […]"}, "[5]": {"conditions": "Eur. J. Pharmacol. 421, 181-189 (2001); cited from earlier work"}},
  "data": [
    {"smiles": "CCCNC(CCC)Cc1cc2ccccc2o1", "note": "(single isomer, unassigned; (-)) [the compound of the present invention, (−)-1-(benzofuran-2-yl)-2-propylaminopentane]", "values": [
      {"measurement": "occurrence of methamphetamine-seeking behavior after the compound alone", "setting": "male Wister/ST rats [1]", "result": "although weak, caused methamphetamine-seeking behavior"},
      {"measurement": "methamphetamine-seeking behavior induced by forced administration of methamphetamine", "setting": "male Wister/ST rats [2]; repeated administration 1.0 mg/kg i.p. in the extinction process for 5 days, FIG. 4", "result": "suppressed significantly"},
      {"measurement": "methamphetamine-seeking behavior (number of active lever-pressings, 30 minutes) induced by forced administration of methamphetamine", "setting": "male Wister/ST rats [2]; single administration 0.32, 1.0 mg/kg i.p., 30 minutes before methamphetamine 1.0 mg/kg i.p., day 6 of extinction, FIG. 2", "result": "suppressed significantly and dose-dependently"},
      {"measurement": "influence on methamphetamine-taking behavior (number of active lever pressings for self-administration)", "setting": "male Wister/ST rats [3]", "result": "did not exert any influence"},
      {"measurement": "methamphetamine-seeking behavior induced by drug-associated cue", "setting": "male Wister/ST rats [4]; repeated administration 1.0 mg/kg i.p. in the extinction process for 5 days, FIG. 3", "result": "suppressed significantly"},
      {"measurement": "methamphetamine-seeking behavior (number of active lever-pressings, 30 minutes) induced by drug-associated cue", "setting": "male Wister/ST rats [4]; single administration 0.32, 1.0 mg/kg i.p., 30 minutes before stimulation, day 6 of extinction, FIG. 1", "result": "suppressed significantly and dose-dependently"},
      {"measurement": "reduction in spontaneous motor activity induced by reserpine", "setting": "[5]", "result": "improves"}
    ]},
    {"smiles": "CN1CCc2cc(Cl)c(O)cc2[C@@H](c2ccccc2)C1.Cl", "note": "[SCH23390, R-(+)-7-chloro-8-hydroxy-3-methyl-1-phenyl-2,3,4,5-tetrahydro-1H-3-benza zepine hydrochloride, reference compound]", "values": [
      {"measurement": "antagonism in cue-induced methamphetamine-seeking behavior on coadministration with the compound of the present invention", "setting": "male Wister/ST rats [4]; SCH23390 0.0001 mg/kg s.c. with the compound of the present invention (0.32, 1.0 mg/kg i.p.)", "result": "showed a tendency to be antagonized"}
    ]},
    {"smiles": "CCN1CCCC1CNC(=O)c1cc(S(=O)(=O)CC)ccc1OC", "note": "(stereo not shown) [sultopride, reference compound]", "values": [
      {"measurement": "antagonism in methamphetamine-induced methamphetamine-seeking behavior on coadministration with the compound of the present invention", "setting": "male Wister/ST rats [2]; sultopride 10 mg/kg i.p. with the compound of the present invention (0.32, 1.0 mg/kg i.p.), 30 minutes before low dose of methamphetamine, FIG. 8", "result": "not"},
      {"measurement": "antagonism in cue-induced methamphetamine-seeking behavior on coadministration with the compound of the present invention", "setting": "male Wister/ST rats [4]; sultopride 10 mg/kg i.p. with the compound of the present invention (0.32, 1.0 mg/kg i.p.)", "result": "not"}
    ]}
  ]
}
